Data from patent publication US20250288589A1, “PYRIDOPYRIMIDINES AND METHODS OF THEIR USE” (Kineta, Inc., priority 2021, published 2025).

The compounds below were run against T1, full-length human PIKFYVE (Homo sapiens, UniProt Q9Y2I7, L932S/Q1183K/Q995L/S1033A/S696N/T998S) (assay: PIKfyve biochemical assay (ADP-Glo Kinase assay, Carna Biosciences)). Settings: GST-PIKFYVE, 10 μM to 3 nM in duplicate, read-out: hPIKfyve IC50.
T1 construct: A full-length human PIKFYVE [1-2098(end) amino acids and S696N, L932S, Q995L, T998S, S1033A and Q1183K; purchased Carna Biosciences; host or cells: baculovirus expression system
T1 sequence (Q9Y2I7 whole entry S696N/L932S/Q995L/T998S/S1033A/Q1183K): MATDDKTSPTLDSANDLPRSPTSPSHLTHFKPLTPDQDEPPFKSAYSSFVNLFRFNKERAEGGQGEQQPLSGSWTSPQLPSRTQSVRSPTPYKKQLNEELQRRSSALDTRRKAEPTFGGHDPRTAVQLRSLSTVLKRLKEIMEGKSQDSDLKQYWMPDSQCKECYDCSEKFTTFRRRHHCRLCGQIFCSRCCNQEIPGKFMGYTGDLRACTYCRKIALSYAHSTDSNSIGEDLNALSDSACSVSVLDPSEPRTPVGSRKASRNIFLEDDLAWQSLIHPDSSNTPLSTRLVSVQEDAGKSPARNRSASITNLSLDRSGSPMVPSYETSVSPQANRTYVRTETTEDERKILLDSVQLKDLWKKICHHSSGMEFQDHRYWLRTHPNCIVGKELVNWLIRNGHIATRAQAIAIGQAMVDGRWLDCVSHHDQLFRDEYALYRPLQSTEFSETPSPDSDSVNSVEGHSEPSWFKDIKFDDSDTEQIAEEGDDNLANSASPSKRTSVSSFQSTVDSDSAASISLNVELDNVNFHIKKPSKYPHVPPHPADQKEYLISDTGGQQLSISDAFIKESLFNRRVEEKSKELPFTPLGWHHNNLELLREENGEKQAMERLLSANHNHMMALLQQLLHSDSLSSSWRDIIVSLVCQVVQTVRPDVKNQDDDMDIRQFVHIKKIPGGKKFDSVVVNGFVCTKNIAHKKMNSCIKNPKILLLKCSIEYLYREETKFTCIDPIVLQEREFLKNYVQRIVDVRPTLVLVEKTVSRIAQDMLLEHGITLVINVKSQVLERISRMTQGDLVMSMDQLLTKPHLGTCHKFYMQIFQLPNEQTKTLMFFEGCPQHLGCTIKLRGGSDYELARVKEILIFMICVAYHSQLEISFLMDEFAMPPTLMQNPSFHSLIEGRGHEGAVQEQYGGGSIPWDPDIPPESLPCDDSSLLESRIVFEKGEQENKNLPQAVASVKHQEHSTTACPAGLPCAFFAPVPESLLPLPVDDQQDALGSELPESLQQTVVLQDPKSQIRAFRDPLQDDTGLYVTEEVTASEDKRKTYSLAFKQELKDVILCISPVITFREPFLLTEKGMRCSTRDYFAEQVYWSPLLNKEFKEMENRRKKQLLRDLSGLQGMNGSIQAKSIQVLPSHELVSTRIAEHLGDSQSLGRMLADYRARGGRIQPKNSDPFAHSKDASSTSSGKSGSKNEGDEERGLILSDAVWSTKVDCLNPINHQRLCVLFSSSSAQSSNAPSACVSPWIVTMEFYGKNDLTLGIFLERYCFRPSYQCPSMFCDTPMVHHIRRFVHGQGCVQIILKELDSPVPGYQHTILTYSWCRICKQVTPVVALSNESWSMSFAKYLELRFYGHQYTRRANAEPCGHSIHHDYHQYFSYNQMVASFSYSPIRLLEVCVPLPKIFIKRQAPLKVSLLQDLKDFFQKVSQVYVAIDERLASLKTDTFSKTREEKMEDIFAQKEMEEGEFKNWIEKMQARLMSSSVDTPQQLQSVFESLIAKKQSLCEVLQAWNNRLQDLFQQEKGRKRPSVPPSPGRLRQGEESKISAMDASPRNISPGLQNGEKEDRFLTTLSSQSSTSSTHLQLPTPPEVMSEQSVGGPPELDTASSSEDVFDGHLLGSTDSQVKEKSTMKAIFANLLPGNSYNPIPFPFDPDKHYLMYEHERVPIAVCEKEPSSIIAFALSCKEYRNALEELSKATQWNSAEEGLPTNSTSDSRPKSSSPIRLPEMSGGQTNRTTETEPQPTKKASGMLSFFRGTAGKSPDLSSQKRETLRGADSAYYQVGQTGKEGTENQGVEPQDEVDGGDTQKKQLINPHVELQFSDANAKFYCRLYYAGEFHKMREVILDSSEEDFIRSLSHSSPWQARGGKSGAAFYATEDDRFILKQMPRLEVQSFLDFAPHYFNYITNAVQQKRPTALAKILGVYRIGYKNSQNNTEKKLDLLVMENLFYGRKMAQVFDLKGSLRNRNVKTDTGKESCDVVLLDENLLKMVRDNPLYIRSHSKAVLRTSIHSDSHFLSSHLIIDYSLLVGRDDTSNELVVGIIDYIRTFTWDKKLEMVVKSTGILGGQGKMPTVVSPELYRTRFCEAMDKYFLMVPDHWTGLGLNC
From the text: (§1) PIKfyve Biochemical Assay. The biochemical PIKFyve inhibition assays were run by Carna Biosciences according to proprietary methodology based on the Promega ADP-Glo™ Kinase assay. A full-length human PIKFYVE [1-2098(end) amino acids and S696N, L932S, Q995L, T998S, S1033A and Q1183K of the protein having the sequence set forth in NCBI Reference Sequence No. NP_055855.2] was expressed as N-terminal GST-fusion protein (265 kDa) using baculovirus expression system. GST-PIKFYVE was purified by using glutathione sepharose chromatography and used in an ADP-Glo™ Kinase assay (Promega). Reactions were set up by adding the test compound solution, substrate solution, ATP solution and kinase solution, each at 4× final concentrations. Reactions were prepared with assay buffer (50 mM MOPS, 1 mM DTT, pH7.2), mixed, and incubated in black 384 well polystyrene plates for 1 hour at room temperature. ADP-Glo™ reagent was then added for 40 minutes, followed by kinase detection reagent for an additional 40 minutes. The kinase activity was evaluated by detecting relative light units on a luminescence plate reader. Samples were run in duplicate from 10 μM to 3 nM. […] IC50 values were calculated from concentration vs % inhibition curves by fitting to a four-parameter logistic curve.
as §1, with “The” for “PIKfyve Biochemical Assay. The”, “accession number” for “the protein having the sequence set forth in NCBI Reference Sequence No.”, “uM” for “μM”

Compound	IC50
CC(C)(C)OC(=O)N1CCC=C(c2ccn(-c3nc(N4CCOCC4)c4ncccc4n3)n2)C1 [Compound 5, tert-butyl 3-(1-(4-morpholinopyrido[3,2-d]pyrimidin-2-yl)-1H-pyrazol-3-yl)-5,6-dihydropyridine-1(2H)-carboxylate]	> 10 µM
c1ncc(-c2ccn(-c3nc(N4CCOCC4)c4ncc(C5CCOCC5)cc4n3)n2)cn1 [Compound 50, 4-[2-(3-pyrimidin-5-ylpyrazol-1-yl)-7-tetrahydropyran-4-yl-pyrido[3,2-d]pyrimidin-4-yl]morpholine]	> 10 µM
Fc1cccc(-c2ccn(-c3nc(N4CCOCC4)c4ncc(C5CCOCC5)cc4n3)n2)c1 [Compound 22, 4-[2-[3-(3-fluorophenyl)pyrazol-1-yl]-7-tetrahydropyran-4-yl-pyrido[3,2-d]pyrimidin-4-yl]morpholine]	0.01 to 0.1 µM
CN1CCN(c2cnc3c(N4CCOCC4)nc(-n4cc(-c5ccccc5)cn4)nc3c2)C(=O)C1 [Compound 56, 4-methyl-1-(4-morpholino-2-(4-phenyl-1H-pyrazol-1-yl)pyrido[3,2-d]pyrimidin-7-yl)piperazin-2-one]	0.01 to 0.1 µM
c1cncc(-c2ccn(-c3nc(N4CCOCC4)c4ncc(C5CCOCC5)cc4n3)n2)c1 [Compound 52, 4-[2-[3-(3-pyridyl)pyrazol-1-yl]-7-tetrahydropyran-4-yl-pyrido[3,2-d]pyrimidin-4-yl]morpholine]	1 to 10 µM
c1cnc2c(N3CCOCC3)nc(-n3ccc(CC4CCNC4)n3)nc2c1 (centres unmarked) [Compound 64, 4-[2-[3-(pyrrolidin-3-ylmethyl)pyrazol-1-yl]pyrido[3,2-d]pyrimidin-4-yl]morpholine]	1 to 10 µM
Oc1cccc(-c2cnn(-c3nc(N4CCOCC4)c4ncccc4n3)c2)c1 [Compound 46, 3-(1-(4-morpholinopyrido[3,2-d]pyrimidin-2-yl)-1H-pyrazol-4-yl)phenol]	< 0.01 µM
COc1ccc(-c2ccn(-c3nc(N4CCOCC4)c4ncc(C5CCOCC5)cc4n3)n2)cc1 [Compound 30, 4-(2-(3-(4-methoxyphenyl)-1H-pyrazol-1-yl)-7-(tetrahydro-2H-pyran-4-yl)pyrido[3,2-d]pyrimidin-4-yl)morpholine]	0.1 to 1 µM
COc1cccc(-c2cnn(-c3nc(N4CCOCC4)c4ncccc4n3)c2)c1 [Compound 28, 4-(2-(4-(3-methoxyphenyl)-1H-pyrazol-1-yl)pyrido[3,2-d]pyrimidin-4-yl)morpholine]	< 0.01 µM
Fc1ccc(-c2ccn(-c3nc(N4CCOCC4)c4ncc(C5CCOCC5)cc4n3)n2)cc1 [Compound 20, 4-[2-[3-(4-fluorophenyl)pyrazol-1-yl]-7-tetrahydropyran-4-yl-pyrido[3,2-d]pyrimidin-4-yl]morpholine]	0.01 to 0.1 µM
c1ccc(-c2ccn(-c3nc(N4CCOCC4)c4ncc(N5CCNCC5)cc4n3)n2)cc1 [Compound 42, 4-[2-(3-phenylpyrazol-1-yl)-7-piperazin-1-yl-pyrido[3,2-d]pyrimidin-4-yl]morpholine]	0.01 to 0.1 µM
COc1ccc(-c2ccn(-c3nc(N4CCOCC4)c4ncccc4n3)n2)cc1 [Compound 17, 4-(2-(3-(4-methoxyphenyl)-1H-pyrazol-1-yl)pyrido[3,2-d]pyrimidin-4-yl)morpholine]	0.1 to 1 µM
FC(F)(F)Cn1ccc(-c2nc(N3CCOCC3)c3ncccc3n2)n1 [Compound 68, 4-(2-(1-(2,2,2-trifluoroethyl)-1H-pyrazol-3-yl)pyrido[3,2-d]pyrimidin-4-yl)morpholine]	1 to 10 µM
c1ccc(-c2ccn(-c3nc(N4CCOCC4)c4nc(C5CCOCC5)ccc4n3)n2)cc1 [Compound 9, 4-[2-(3-phenylpyrazol-1-yl)-6-tetrahydropyran-4-yl-pyrido[3,2-d]pyrimidin-4-yl]morpholine]	0.01 to 0.1 µM
COc1ccc(-c2ccn(-c3nc(N4CCOCC4)c4ncc(C5=CCOCC5)cc4n3)n2)cc1 [Compound 29, 4-(7-(3,6-dihydro-2H-pyran-4-yl)-2-(3-(4-methoxyphenyl)-1H-pyrazol-1-yl)pyrido[3,2-d]pyrimidin-4-yl)morpholine]	0.1 to 1 µM
Fc1ccccc1-c1ccn(-c2nc(N3CCOCC3)c3ncc(C4CCOCC4)cc3n2)n1 [Compound 19, 4-[2-[3-(2-fluorophenyl)pyrazol-1-yl]-7-tetrahydropyran-4-yl-pyrido[3,2-d]pyrimidin-4-yl]morpholine]	0.1 to 1 µM

More lines, now with the values ahead:

IC50	Compound
0.1 to 1 µM	O=c1[nH]c(-c2ccccc2)nn1-c1nc(N2CCOCC2)c2ncccc2n1 [Compound 82, 2-(4-morpholinopyrido[3,2-d]pyrimidin-2-yl)-5-phenyl-4H-1,2,4-triazol-3-one]
1 to 10 µM	c1cc(-c2nc(N3CCOCC3)c3ncccc3n2)nc(C2CCNCC2)c1 [Compound 92, 4-[2-[6-(4-piperidyl)-2-pyridyl]pyrido[3,2-d]pyrimidin-4-yl]morpholine]
0.1 to 1 µM	COc1cnc(-c2ccccc2)nc1-c1nc(N2CCOCC2)c2ncccc2n1 [Compound 93, 4-(2-(5-methoxy-2-phenylpyrimidin-4-yl)pyrido[3,2-d]pyrimidin-4-yl)morpholine]
0.1 to 1 µM	CC1COCCN1c1nc(-c2ccnc(-c3ccccc3)n2)nc2cccnc12 (centres unmarked) [Compound 106, 3-methyl-4-(2-(2-phenylpyrimidin-4-yl)pyrido[3,2-d]pyrimidin-4-yl)morpholine]
> 10 µM	CN1CCC(c2nccc(-c3nc(N4CCOCC4)c4ncccc4n3)n2)CC1 [Compound 85, 4-[2-[2-(1-methyl-4-piperidyl)pyrimidin-4-yl]pyrido[3,2-d]pyrimidin-4-yl]morpholine]
> 10 µM	c1cnc2c(N3CCOCC3)nc(-c3ccnc(C4CCNCC4)n3)nc2c1 [Compound 84, 4-[2-[2-(4-piperidyl)pyrimidin-4-yl]pyrido[3,2-d]pyrimidin-4-yl]morpholine]
1 to 10 µM	c1cnc2c(N3CCOCC3)nc(-c3n[nH]c4ccccc34)nc2c1 [Compound 69, 4-[2-(1H-indazol-3-yl)pyrido[3,2-d]pyrimidin-4-yl]morpholine]
0.01 to 0.1 µM	Oc1cnc(-c2ccccc2)nc1-c1nc(N2CCOCC2)c2ncccc2n1 [Compound 94, 4-(4-morpholinopyrido[3,2-d]pyrimidin-2-yl)-2-phenylpyrimidin-5-ol]
0.1 to 1 µM	COc1cccc(-c2nccc(-c3nc(N4CCOCC4)c4ncccc4n3)n2)c1 [Compound 100, 4-(2-(2-(3-methoxyphenyl)pyrimidin-4-yl)pyrido[3,2-d]pyrimidin-4-yl)morpholine]
> 10 µM	O=C1N(c2nc(N3CCOCC3)c3ncccc3n2)CCN1C1CCCC1 [Compound 78, 1-cyclopentyl-3-(4-morpholinopyrido[3,2-d]pyrimidin-2-yl)imidazolidin-2-one]
0.1 to 1 µM	Fc1cccc(Nc2nc(N3CCOCC3)c3ncc(Cc4cccnc4)cc3n2)c1 [Compound 129, N-(3-fluorophenyl)-4-morpholino-7-(pyridin-3-ylmethyl)pyrido[3,2-d]pyrimidin-2-amine]
< 0.01 µM	Cc1cccc(-c2cc(O)n(-c3nc(N4CCOCC4)c4ncc(-c5ccoc5)cc4n3)n2)c1 [Compound 70, 1-(7-(furan-3-yl)-4-morpholinopyrido[3,2-d]pyrimidin-2-yl)-3-m-tolyl-1H-pyrazol-5-ol]
0.1 to 1 µM	c1ccc(-c2cn(-c3nc(N4CCOCC4)c4ncccc4n3)nn2)cc1 [Compound 74, 4-(2-(4-phenyl-1H-1,2,3-triazol-1-yl)pyrido[3,2-d]pyrimidin-4-yl)morpholine]
